The record followed here is ChEMBL document CHEMBL1134401, “Property-based design: optimization of drug absorption and pharmacokinetics” (J Med Chem, 2001).

One may read the Vd as the apparent volume that relates the amount in the body to the concentration in plasma or blood. Higher therefore signals extensive tissue distribution. A word on the clearance: it is the volume of plasma or blood freed of the substance per unit of time. A high value points to a high capacity for elimination. The term logD denotes lipophilicity at a set pH, counting ionised and neutral species. Read a low logD as a more hydrophilic compound. What is called half-life is the time in which the quantity being followed falls by half. A lower half-life goes with rapid decline.

A short description of data set [1]: Volume of distribution of the compound. To be noted: in vivo.
Data set [2] in a line: Plasma clearance of the compound.
The nature of data set [3]: Partition coefficient (logD). As to conditions: octanol/water.
Data set [4] is described as follows: Half life was measured as time taken to decrease half of its initial concentration.

In data set [1], `CO[C@H]1/C=C/O[C@@]2(C)Oc3c(C)c(O)c4c(O)c(c(/C=N/N5CCN(C)CC5)c(O)c4c3C2=O)NC(=O)/C(C)=C\C=C\[C@H](C)[C@H](O)[C@@H](C)[C@@H](O)[C@@H](C)[C@H](OC(C)=O)[C@@H]1C` [RIFAMPIN] had a Vd of 8.8 L/kg. This compound also showed a clearance in data set [2] of 32 mL/min/kg.

In the case of `CCOC(=O)C1=C(COCCN)NC(C)=C(C(=O)OC)C1c1ccccc1Cl` (stereo unspecified) [AMLODIPINE], in data set [3], the log distribution coefficient (logD) worked out at 1.8.

`CCOC(=O)C1=C(C)NC(C)=C(C(=O)OC)C1c1cccc([N+](=O)[O-])c1` (stereo unspecified) [NITRENDIPINE]: the logD in data set [3] was 4.2. In data set [4], this compound had a half-life of 4 h. In data set [1], the Vd worked out at 3.8 L/kg. Also, in data set [2], the clearance is 21 mL/min/kg.

Compound `COC(=O)C1=C(C)NC(C)=C(C(=O)OC)C1c1ccccc1[N+](=O)[O-]` [NIFEDIPINE] gave a half-life in data set [4] of 1.9 h. In data set [1], the Vd is 1 L/kg.

With `CCOC(=O)C1=C(C)NC(C)=C(C(=O)OC)C1c1cccc(Cl)c1Cl` (stereo unspecified) [FELODIPINE], in data set [3], the logD amounted to 4.8.

Compound `CO[C@H]1/C=C/O[C@@]2(C)Oc3c(C)c(O)c4c(c3C2=O)C2=NC3(CCN(CC(C)C)CC3)NC2=C(NC(=O)/C(C)=C\C=C\[C@H](C)[C@H](O)[C@@H](C)[C@@H](O)[C@@H](C)[C@H](OC(C)=O)[C@@H]1C)C4=O` [RIFABUTIN] had a half-life in data set [4] of 45 h. The Vd in data set [1] is 266 L/kg. For the same compound, the clearance in data set [2] is 80 mL/min/kg.

With `CO[C@H]1/C=C/O[C@@]2(C)Oc3c(C)c(O)c4c(O)c(cc(O)c4c3C2=O)NC(=O)/C(C)=C\C=C\[C@H](C)[C@H](O)[C@@H](C)[C@@H](O)[C@@H](C)[C@H](OC(C)=O)[C@@H]1C` [RIFAMYCIN], the half-life in data set [4] was 0.33 h. In data set [1], this compound returned a Vd of 1.2 L/kg. In data set [2], this compound returned a clearance of 80 mL/min/kg.
